Experiment [1] can be described thus: Antagonist activity at rat nAChR alpha7 R6K mutant expressed in xenopus oocytes assessed as inhibition of Ach- induced response at -70 mV holding potential preincubated for 5 mins followed by Ach stimulation by voltage-clamp based electrophysiological method. The format is cell-based. Conditions: Oocyte.
Experiment [2] deals with Nicotinic acetylcholine receptor alpha9/alpha10 (Rattus norvegicus) (UniProt P43144+Q9JLB5). Kind of experiment: Antagonist activity at rat alpha9alpha10 nAChR expressed in xenopus oocytes assessed as inhibition of Ach- induced response at 10 uM at -70 mV holding potential preincubated for 5 mins followed by Ach stimulation by voltage-clamp based electrophysiological method. The format is cell-based. The note with it: Oocyte.

In experiment [3] the target is Nicotinic acetylcholine receptor alpha6/alpha3/beta4 (Homo sapiens, UniProt P30926+P32297+Q15825). The experiment is described as follows: Antagonist activity at rat alpha6/alpha3beta4 nAChR expressed in xenopus oocytes assessed as inhibition of Ach- induced response at -70 mV holding potential preincubated for 5 mins followed by Ach stimulation by voltage-clamp based electrophysiological method. The format is cell-based, Oocyte.

A short description of experiment [4]: Antagonist activity at rat nAChR alpha7 A112S mutant expressed in xenopus oocytes assessed as inhibition of Ach- induced response at -70 mV holding potential preincubated for 5 mins followed by Ach stimulation by voltage-clamp based electrophysiological method. In kind it is cell-based. The note with it: Oocyte.
In experiment [5] the target is Neuronal acetylcholine receptor; alpha4/beta2 (Rattus norvegicus, UniProt P09483+P12390). The experiment is described as follows: Antagonist activity at rat alpha4beta2 nAChR expressed in xenopus oocytes assessed as inhibition of Ach- induced response at -70 mV holding potential preincubated for 5 mins followed by Ach stimulation by voltage-clamp based electrophysiological method. In kind it is cell-based, Oocyte.

The nature of experiment [6]: Antagonist activity at human nAChR alpha7 S184N/R186K double mutant expressed in xenopus oocytes assessed as inhibition of Ach- induced response at -70 mV holding potential preincubated for 5 mins followed by Ach stimulation by voltage-clamp based electrophysiological method. Conditions: Oocyte. In kind it is cell-based.
Experiment [7] can be described thus: Antagonist activity at rat alpha6/ alpha3beta2beta3 nAChR expressed in xenopus oocytes assessed as inhibition of Ach- induced response at -70 mV holding potential preincubated for 5 mins followed by Ach stimulation by voltage-clamp based electrophysiological method. The format is cell-based. Conditions: Oocyte.
Experiment [8] deals with Neuronal acetylcholine receptor subunit alpha-7 (Homo sapiens, UniProt P36544). In kind it is cell-based, Oocyte.

Structures are written as SMILES. Active and inactive are the calls of the source. The rule behind the calls is not given here. Where a SMILES comes first, the peptide text is derived from it. Bridges are numbered along the chain shown (N, C = ends).

Neuronal acetylcholine receptor subunit alpha-7, sequence (P36544 whole entry): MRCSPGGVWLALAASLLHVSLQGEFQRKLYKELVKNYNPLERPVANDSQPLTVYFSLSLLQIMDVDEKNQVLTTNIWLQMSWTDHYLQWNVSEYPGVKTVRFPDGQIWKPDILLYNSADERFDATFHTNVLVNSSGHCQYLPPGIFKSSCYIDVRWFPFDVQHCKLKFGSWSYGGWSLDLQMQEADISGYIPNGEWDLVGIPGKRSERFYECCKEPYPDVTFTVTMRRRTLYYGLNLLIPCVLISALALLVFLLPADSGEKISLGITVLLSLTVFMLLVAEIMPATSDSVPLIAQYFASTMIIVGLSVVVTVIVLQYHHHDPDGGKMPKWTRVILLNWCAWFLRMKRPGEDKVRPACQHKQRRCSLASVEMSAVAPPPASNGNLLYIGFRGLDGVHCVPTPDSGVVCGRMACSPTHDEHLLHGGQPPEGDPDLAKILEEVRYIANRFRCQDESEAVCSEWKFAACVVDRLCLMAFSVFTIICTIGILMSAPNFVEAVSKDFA
Nicotinic acetylcholine receptor alpha6/alpha3/beta4, sequence (P30926 whole entry): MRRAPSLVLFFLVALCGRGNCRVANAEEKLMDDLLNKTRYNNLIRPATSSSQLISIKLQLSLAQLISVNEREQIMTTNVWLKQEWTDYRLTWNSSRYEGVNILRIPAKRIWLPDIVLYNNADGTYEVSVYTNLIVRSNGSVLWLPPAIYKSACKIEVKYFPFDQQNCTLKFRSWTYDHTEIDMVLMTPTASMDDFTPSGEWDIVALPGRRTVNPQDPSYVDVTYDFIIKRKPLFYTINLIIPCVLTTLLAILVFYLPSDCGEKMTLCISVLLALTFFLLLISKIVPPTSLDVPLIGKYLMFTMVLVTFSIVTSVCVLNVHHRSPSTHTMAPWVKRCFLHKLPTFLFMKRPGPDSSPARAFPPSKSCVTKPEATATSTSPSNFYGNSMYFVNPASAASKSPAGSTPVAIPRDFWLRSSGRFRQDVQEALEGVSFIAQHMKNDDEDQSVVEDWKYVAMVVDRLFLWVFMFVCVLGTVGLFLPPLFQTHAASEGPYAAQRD
Nicotinic acetylcholine receptor alpha6/alpha3/beta4, sequence (P32297 whole entry): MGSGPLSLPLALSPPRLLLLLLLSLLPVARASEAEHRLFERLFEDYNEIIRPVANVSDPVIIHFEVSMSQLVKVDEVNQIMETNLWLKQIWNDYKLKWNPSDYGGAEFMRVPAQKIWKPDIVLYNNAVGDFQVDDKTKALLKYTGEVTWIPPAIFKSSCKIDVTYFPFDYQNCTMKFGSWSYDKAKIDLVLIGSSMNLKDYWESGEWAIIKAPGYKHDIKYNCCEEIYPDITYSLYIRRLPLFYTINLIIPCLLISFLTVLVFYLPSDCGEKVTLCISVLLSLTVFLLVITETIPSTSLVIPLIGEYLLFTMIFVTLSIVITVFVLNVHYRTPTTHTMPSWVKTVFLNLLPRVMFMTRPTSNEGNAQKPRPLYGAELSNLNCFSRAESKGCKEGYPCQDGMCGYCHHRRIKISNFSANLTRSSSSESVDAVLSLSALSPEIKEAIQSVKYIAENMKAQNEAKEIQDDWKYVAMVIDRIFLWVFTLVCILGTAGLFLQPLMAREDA
Nicotinic acetylcholine receptor alpha6/alpha3/beta4, sequence (Q15825 whole entry): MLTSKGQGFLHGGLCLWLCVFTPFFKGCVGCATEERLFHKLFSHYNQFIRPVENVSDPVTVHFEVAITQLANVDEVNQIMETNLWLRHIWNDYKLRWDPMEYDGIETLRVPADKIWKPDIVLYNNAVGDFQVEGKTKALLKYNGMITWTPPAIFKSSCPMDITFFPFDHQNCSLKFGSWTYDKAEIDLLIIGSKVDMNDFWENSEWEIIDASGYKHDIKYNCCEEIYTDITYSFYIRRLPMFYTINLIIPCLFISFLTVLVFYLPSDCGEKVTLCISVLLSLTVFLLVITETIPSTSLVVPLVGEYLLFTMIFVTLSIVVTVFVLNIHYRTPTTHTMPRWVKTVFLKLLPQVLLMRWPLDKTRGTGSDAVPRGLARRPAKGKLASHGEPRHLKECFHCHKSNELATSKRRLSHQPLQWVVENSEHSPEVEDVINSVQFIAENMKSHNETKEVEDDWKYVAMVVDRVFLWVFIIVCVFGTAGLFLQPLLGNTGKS
Neuronal acetylcholine receptor; alpha4/beta2, sequence (P09483 whole entry): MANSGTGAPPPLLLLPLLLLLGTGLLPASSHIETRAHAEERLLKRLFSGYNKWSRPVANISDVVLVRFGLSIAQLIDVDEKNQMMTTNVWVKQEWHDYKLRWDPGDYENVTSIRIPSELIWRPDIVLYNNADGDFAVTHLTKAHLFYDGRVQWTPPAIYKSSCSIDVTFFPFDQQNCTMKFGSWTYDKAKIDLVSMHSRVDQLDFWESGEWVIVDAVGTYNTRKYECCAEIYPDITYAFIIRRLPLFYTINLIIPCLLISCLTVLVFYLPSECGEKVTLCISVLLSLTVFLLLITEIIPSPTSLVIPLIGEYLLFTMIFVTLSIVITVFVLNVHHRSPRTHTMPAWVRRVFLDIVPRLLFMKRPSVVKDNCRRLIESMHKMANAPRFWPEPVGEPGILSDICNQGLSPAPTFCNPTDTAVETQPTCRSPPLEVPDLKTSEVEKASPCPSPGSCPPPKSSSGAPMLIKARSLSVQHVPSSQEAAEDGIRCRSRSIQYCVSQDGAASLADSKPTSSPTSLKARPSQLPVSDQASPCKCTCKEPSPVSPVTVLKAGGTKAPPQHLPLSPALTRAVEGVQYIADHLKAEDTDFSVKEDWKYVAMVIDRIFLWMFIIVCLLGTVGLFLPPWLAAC
Neuronal acetylcholine receptor; alpha4/beta2, sequence (P12390 whole entry): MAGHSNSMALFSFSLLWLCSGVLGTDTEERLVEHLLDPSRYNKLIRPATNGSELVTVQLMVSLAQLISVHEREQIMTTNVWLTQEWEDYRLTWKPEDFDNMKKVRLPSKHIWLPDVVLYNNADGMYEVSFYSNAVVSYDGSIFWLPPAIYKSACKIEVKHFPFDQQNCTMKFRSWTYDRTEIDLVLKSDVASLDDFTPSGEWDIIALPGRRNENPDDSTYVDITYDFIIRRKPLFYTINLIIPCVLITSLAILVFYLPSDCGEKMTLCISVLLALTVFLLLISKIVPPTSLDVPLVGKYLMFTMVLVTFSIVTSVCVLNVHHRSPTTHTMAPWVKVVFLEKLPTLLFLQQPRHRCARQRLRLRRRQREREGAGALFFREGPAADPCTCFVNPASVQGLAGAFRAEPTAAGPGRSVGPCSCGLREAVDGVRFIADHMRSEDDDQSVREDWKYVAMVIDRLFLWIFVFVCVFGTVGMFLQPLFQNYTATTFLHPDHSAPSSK

In general, IC50 refers to the concentration at which inhibition is half-maximal. `C[C@@H]1NC(=O)[C@@H]2CSSC[C@H](NC(=O)CN)C(=O)N[C@@H](CSSC[C@@H](C(N)=O)NC(=O)[C@H](Cc3cnc[nH]3)NC(=O)[C@H](CCC(=O)O)NC(=O)[C@H](Cc3cnc[nH]3)NC1=O)C(=O)N[C@@H](CO)C(=O)N[C@@H](CC(N)=O)C(=O)N1CCC[C@H]1C(=O)N1CCC[C@H]1C(=O)N2` (H-GCCSNPPCAHEHC-NH2; disulfide 2-8, 3-13): the IC50 in experiment [1] was 170 nM; in experiment [3], 1410 nM; in experiment [4], 160 nM; in experiment [5], above 10000 nM; in experiment [6], 530 nM; in experiment [7], 150 nM. Further, the IC50 in experiment [8] was 1570 nM. Also, the inhibition result in experiment [2] is “inactive”.

(Values after ChEMBL document CHEMBL5055626 (J Med Chem, 2021).)
